Laboratory results as given in patent US20110009335A1, “Anticancer Treatments” (priority 2008, published 2011).
Starred links: 1 amine or outer side, 2 acyl side, 3 side chain; linkers in the order of their positions; H or OH if unused. Positions of bridges follow the written chain, without caps; N, C: chain ends. Non-standard residues stand in square brackets, D forms with d. Residues, ends and D or L forms follow the SMILES beside them. *: point of attachment. X1 = CC[C@H](C)[C@@H](N[*:1])[C@@H](O)CC(=O)O[C@H](C(=O)[C@H](C)C(=O)[*:2])C(C)C; NMeY = CN[C@@H](Cc1ccc(O)cc1)C(=O)O; dNMeL = CN[C@H](CC(C)C)C(=O)O; Pyruvoyl = CC(=O)C(=O)*

Legend:
[1] = test system: MRI-H-121 human renal tumor xenograft; assay: Aplidine with sorafenib, MRI-H-121 xenograft in athymic nude mice (Example 1); format: in vivo; settings: for antitumor activity as single agent (monotherapy): doses and schedules tested, sorafenib 60 or 30 mg/kg/day
Protocol: Female athymic nude mice (Harlan Sprague Dawley, Madison, Wis.) were utilized for all experiments. Mice were implanted with tumor fragments or a cell suspension when mice were 5 weeks of age. Animals were housed in ventilated rack caging, 5 mice per cage, with food and water ad libitum. The mice were acclimated for 1 week prior to being implanted with tumor fragments or cell suspensions.
Tumor measurements were determined by using Vernier calipers. The formula to calculate volume for a prolate ellipsoid was used to estimate tumor volume (mm^3) from 2-dimensional tumor measurements: Tumor volume (mm^3)=[L×W^2]÷2, where L is the length and it is the longest diameter in mm, and W is the width and it is the shortest diameter in mm of a tumor. Assuming unit density, volume was converted to weight (i.e., 1 mm^3=1 mg).
(§1) Body weights were recorded on treatment days and when tumor sizes were measured. In those days wherein the two drugs were administered the same day, the combination therapy groups were treated by co-administering the two drugs at the same time, with no attempt to sequence the treatments.
(§2) Aplidine was provided in the form of vials of lyophilized aplidine powder which was reconstituted in Cremophor EL/ethanol/water (CEW) 15/15/70 to a concentration of 0.5 mg/ml. Then the aplidine solution in CEW was diluted in 0.9% Saline to the dosing formulation concentrations, being the final proportion of CEW of 0.18/0.18/0.84.
(§3) Tumor size measurements were recorded twice weekly from the treatment initiation until the termination of the study.
(§4) Mean, standard deviation and standard error of the mean were determined for tumor volume for all animal groups at all assessments. Student's t test was performed on tumor volumes at each measurement day, including at the end of the study, to determine whether there were any statistically significant differences between combination treatment groups and single monotherapy treatment groups.
Determine the % of tumor growth inhibition, as 100−% T/C, for each of the drugs administered as monotherapy at the doses used in the combinations. % T/C was obtained by comparing the mean tumor weight in the treatment groups (T) to the mean tumor weight in the control group (C) (T/C×100%). • 2. The two scores were added together to determine the “expected response” if each agent produced the same response as it did when administered as monotherapy. • 3. This “expected response” was subtracted from the % of tumor growth inhibition determined for the combination therapy group: • a. A negative number meant that the effect of combining the two drugs was less than additive. • b. If the resulting number was close to zero, the effect of combining the two drugs was determined as additive. • c.

[2] = test system: HepG2 human hepatoma xenograft; assay: Aplidine with sorafenib, HepG2 xenograft in athymic nude mice (Example 6); format: in vivo; settings: for % Inhibition G2: aplidine 0.06 mg/kg/day; for antitumor activity as single agent (monotherapy): doses tested; for % Inhibition G4: sorafenib 30 mg/kg/day; for % Inhibition G3: sorafenib 60 mg/kg/day
Protocol: Female athymic nude mice (Harlan Sprague Dawley, Madison, Wis.) were utilized for all experiments. Mice were implanted with a cell suspension when mice were 6-8 weeks of age. Animals were housed in ventilated rack caging with food and water ad libitum. The mice were acclimated for at least 5 days prior to tumor implantation.
The tumor model used in this study was HepG2, which is a human hepatoma cell line obtained from the ATCC (Manassas, Va.). HepG2 cells were grown in MEM medium, 10% FBS, 1.5 g/l sodium bicarbonate, 0.1 mM non-essential amino acids, 1.0 mM sodium pyruvate and 2 mM L-glutamine. Cells from in vitro passage 4-20 were implanted SC into study mice: 5×10^6 cells/mouse in 0.2 ml 50% Matrigel/50% medium without antibiotics or serum, using a 23 G needle and 1 cc syringe. Bacterial cultures were performed on aliquots of the cells prepared for implantation.
Tumor measurements were determined as disclosed in Example 1. When tumor growth was within an average size range of 130±44 mg (mean±SD), mice were randomized into the treatment and control groups based on tumor weight by using LabCat® In Life module V 8.0 SP1 tumor tracking and measurement software.
as §1, with “The treatment of HepG2-tumor-bearing mice was initiated on DPI (Day Post Implantation) 19. Body” for “Body”
as §2, with “The” for “Then the”
as §3, §4
The definition and criteria for the evaluation of potentiation and the degree of additivity for the combination therapy were the same as those disclose in Example 1.

[3] = aplidine 0.040 and/or sorafenib 30 mg/kg/day
[4] = aplidine 0.060 and/or sorafenib 60 mg/kg/day
[5] = G2: aplidine 0.060 mg/kg/day IP

## CC[C@H](C)[C@H]1NC(=O)[C@@H](NC(=O)[C@@H](CC(C)C)N(C)C(=O)[C@@H]2CCCN2C(=O)C(C)=O)[C@@H](C)OC(=O)[C@H](Cc2ccc(OC)cc2)N(C)C(=O)[C@@H]2CCCN2C(=O)[C@H](CC(C)C)NC(=O)[C@@H](C)C(=O)[C@H](C(C)C)OC(=O)C[C@@H]1O [aplidine, dehydrodidemnin B] (Pyruvoyl-P[dNMeL]T[X1]LP[NMeY](Me); ester 3-C)
[1]; [3]
  % T/C on day 14: 103.5%
  % T/C on day 16: 104.0%
  % T/C on day 20: 85.1%
  % T/C on day 23: 85.9%
  % T/C on day 27: 94.1%
  % T/C on day 30: 86.4%
  % T/C on day 34: 91.0%
  % T/C on day 37: 85.6%
  % T/C on day 41: 92.5%
  % T/C on day 44: 93.9%
  % T/C on day 48: 94.9%
[1]; [4]
  % T/C on day 14: 102.0%
  % T/C on day 16: 97.5%
  % T/C on day 20: 81.5%
  % T/C on day 23: 73.9%
  % T/C on day 27: 98.4%
  % T/C on day 30: 88.5%
  % T/C on day 34: 75.8%
  % T/C on day 37: 75.0%
  % T/C on day 41: 88.3%
  % T/C on day 44: 90.2%
  % T/C on day 48: 95.5%
[1]
  antitumor activity as single agent (monotherapy): refractory
[2]; [5]
  % T/C on day 19: 95.9%
  % T/C on day 22: 97.0%
  % T/C on day 26: 66.7%
  % T/C on day 30: 76.9%
  % T/C on day 33: 91.0%
[2]; day 19
  % Inhibition G2: 4.1%
[2]; day 22
  % Inhibition G2: 3.0%
[2]; day 26
  % Inhibition G2: 33.3%
[2]; day 30
  % Inhibition G2: 23.1%
[2]; day 33
  % Inhibition G2: 9.0%
[2]
  antitumor activity as single agent (monotherapy): inactive

## CNC(=O)c1cc(Oc2ccc(NC(=O)Nc3ccc(Cl)c(C(F)(F)F)c3)cc2)ccn1 [sorafenib]
[1]; [3]
  % T/C on day 14: 99.7%
  % T/C on day 16: 85.6%
  % T/C on day 20: 62.1%
  % T/C on day 27: 78.7%
  % T/C on day 30: 72.0%
  % T/C on day 34: 66.1%
  % T/C on day 37: 72.5%
  % T/C on day 41: 79.5%
  % T/C on day 44: 77.6%
  % T/C on day 48: 76.1%
[1]; [4]
  % T/C on day 14: 103.8%
  % T/C on day 16: 85.0%
  % T/C on day 20: 66.5%
  % T/C on day 23: 71.7%
  % T/C on day 27: 70.4%
  % T/C on day 30: 75.6%
  % T/C on day 34: 69.6%
  % T/C on day 37: 71.1%
  % T/C on day 41: 74.7%
  % T/C on day 44: 71.0%
  % T/C on day 48: 71.8%
[1]
  antitumor activity as single agent (monotherapy): did not reach the NCI criteria for activity
[2]; G3: sorafenib 60 mg/kg/day PO
  % T/C on day 19: 88.8%
  % T/C on day 22: 78.7%
  % T/C on day 26: 60.1%
  % T/C on day 30: 61.8%
  % T/C on day 33: 66.2%
[2]; G4: sorafenib 30 mg/kg/day PO
  % T/C on day 19: 101.4%
  % T/C on day 22: 123.5%
  % T/C on day 26: 91.3%
  % T/C on day 30: 100.9%
[2]
  antitumor activity as single agent (monotherapy): inactive
[2]; day 22
  % Inhibition G4: −23.5%
[2]; day 26
  % Inhibition G4: 8.7%
  % Inhibition G3: 39.9%
[2]; day 30
  % Inhibition G4: −0.9%
  % Inhibition G3: 38.2%
[2]; day 33
  % Inhibition G4: 9.6%
  % Inhibition G3: 33.8%
[2]; day 19
  % Inhibition G3: 11.2%
